Reference: the NIST ThermoML archive (doi:10.1016/j.jct.2011.10.027)
Numbers after ± are expanded uncertainties.

How the values were obtained:
[1] = 101.33 kPa, Liquid, Vibrating tube method
[2] = refractive index (Na D-line) (dimensionless); conditions: 293.15 K; 101.33 kPa; Liquid; Standard Abbe refractometry

| SMILES | mass density ([1]; 293.15 K) | mass density ([1]; 298.15 K) | mass density ([1]; 303.15 K) | mass density ([1]; 313.15 K) | mass density ([1]; 323.15 K) | mass density ([1]; 333.15 K) | refractive index [2] |
| --- | --- | --- | --- | --- | --- | --- | --- |
| Cc1ccccc1C [1,2-dimethylbenzene] | 879.79 ± 0.23 kg/m3 | 875.58 ± 0.23 kg/m3 | 871.37 ± 0.24 kg/m3 | 862.78 ± 0.24 kg/m3 | 854.02 ± 0.24 kg/m3 | 845.2 ± 0.24 kg/m3 | 1.5015 ± 0.0005 |
| Cc1cccc(C)c1 [1,3-dimethylbenzene] | 864.18 ± 0.24 kg/m3 | 859.88 ± 0.24 kg/m3 | 855.56 ± 0.24 kg/m3 | 846.85 ± 0.24 kg/m3 | 837.92 ± 0.24 kg/m3 | 829.01 ± 0.24 kg/m3 | 1.4936 ± 0.0005 |
| Cc1ccc(C)cc1 [1,4-dimethylbenzene] | 861.02 ± 0.24 kg/m3 | 856.68 ± 0.24 kg/m3 | 852.33 ± 0.24 kg/m3 | 843.59 ± 0.24 kg/m3 | 834.81 ± 0.24 kg/m3 | 825.96 ± 0.24 kg/m3 | 1.4922 ± 0.0005 |
| CCc1ccccc1 [ethylbenzene] | 866.99 ± 0.24 kg/m3 | 862.59 ± 0.24 kg/m3 | 858.18 ± 0.24 kg/m3 | 849.33 ± 0.24 kg/m3 | 840.42 ± 0.24 kg/m3 | 831.42 ± 0.24 kg/m3 | 1.4922 ± 0.0005 |
| O=[N+]([O-])c1ccccc1 [nitrobenzene] | 1203.13 ± 0.4 kg/m3 | 1198.17 ± 0.39 kg/m3 | 1193.21 ± 0.39 kg/m3 | 1183.3 ± 0.38 kg/m3 | 1173.38 ± 0.37 kg/m3 | 1163.45 ± 0.36 kg/m3 | 1.549 ± 0.0005 |
| Cc1ccccc1 [toluene] | 866.89 ± 0.13 kg/m3 | 862.24 ± 0.13 kg/m3 | 857.58 ± 0.13 kg/m3 | 848.2 ± 0.13 kg/m3 | 838.76 ± 0.13 kg/m3 | 829.22 ± 0.14 kg/m3 | 1.493 ± 0.0005 |
| CCCCN(CCCC)CCCC [tributylamine] | 776.91 ± 0.24 kg/m3 | 773.18 ± 0.24 kg/m3 | 769.45 ± 0.24 kg/m3 | 761.97 ± 0.24 kg/m3 | 754.45 ± 0.24 kg/m3 | 746.88 ± 0.24 kg/m3 | 1.4259 ± 0.0005 |
